# Patent US20180256673A1, “METHODS FOR TREATING FUNGAL INFECTIONS” (priority 2015, published 2018)
# “And” between values parts separate entries of the source, which are not always exact repeats. Equal entries are not always repeated. Where two headings read alike, the source gives them in different places. Starred links: 1 amine or outer side, 2 acyl side, 3 side chain; linkers in the order of their positions; H or OH if unused. Positions of bridges follow the written chain, without caps; N, C: chain ends. Non-standard residues stand in square brackets, D forms with d. Residues, ends and D or L forms follow the SMILES beside them. *: point of attachment. pTerphenylCO(4''-OnC5H11) = CCCCCOc1ccc(-c2ccc(-c3ccc(C(=O)*)cc3)cc2)cc1; Orn(4R-OH,5R-OH) = O=C([C@H](C[C@@H](O)[C@@H](O)N[*:3])N[*:1])[*:2]; hTyr(3S-OH,4S-OH) = N[C@H](C(=O)O)[C@H](O)[C@@H](O)c1ccc(O)cc1; Pro(3S-OH,4S-Me) = C[C@H]1CN[C@H](C(=O)O)[C@H]1O; Hyp = O=C(O)[C@@H]1C[C@@H](O)CN1
# Assays:
# [1] = system: C. glabrata ATCC 90030, ATCC 2001; assay type: cell-based, Candida glabrata; settings: for Freq. (replicate mutation frequency): replicate plates 1-3; for Plate concentration: SDA, minimum concentration to cleanly inhibit growth
# Description: (§1) Spontaneous mutant selection. […] Three individual colonies from each strain were used to start cultures in RPMI. […] One milliliter aliquots were spread onto SDA plates containing drug with sterile glass beads. Starting viable count was enumerated by triplicate plating of serial dilutions of the starting inoculum. […] Glycerol stocks of putative mutant colonies were stored at −80° C. […] Spontaneous mutation frequencies were calculated by dividing the number of resistant colonies on a given plate by the starting inoculum plated. A subset of mutants (weighted heavily towards those selected with CMP1) were then evaluated by MIC and sequencing of FKS gene hot spot regions.
# C. parapsilosis CP02 = test: microbe, parasite or virus in culture; assay type: cell-based, Candida parapsilosis; settings: for MIC: Lodderomyces parapsilosis
# Candida orthopsilosis = test: Broth microdilution of invasive fungal isolates (CLSI M27-A3/M38-A2); assay type: cell-based
# [2] = system: C. albicans vaginal isolates; test: Susceptibility testing of VVC clinical isolates at pH 7 and 4 (CLSI M27-A3); assay type: cell-based, Candida albicans; settings: Candida albicans
# [3] = system: Cryptococcus neoformans var. grubii; test: Broth microdilution of invasive fungal isolates (CLSI M27-A3/M38-A2); assay type: cell-based
# Aspergillus fumigatus = test: Broth microdilution of invasive fungal isolates (CLSI M27-A3/M38-A2), MEC; assay type: cell-based; settings: 56 isolates
# C. krusei ATCC 6258 [4] = test: microbe, parasite or virus in culture; assay type: cell-based, Candida krusei; settings: for MIC: Pichia kudriavzevii
# Candida albicans = test: Broth microdilution of invasive fungal isolates (CLSI M27-A3/M38-A2); assay type: cell-based
# C. krusei ATCC 6258 [5] = assay type: cell-based, Candida krusei
# Description: as §1
# Candida dubliniensis = test: Broth microdilution of invasive fungal isolates (CLSI M27-A3/M38-A2); assay type: cell-based
# Candida krusei = test: as above; assay type: cell-based
# [6] = system: C. tropicalis vaginal isolates; test: Susceptibility testing of VVC clinical isolates at pH 7 and 4 (CLSI M27-A3); assay type: cell-based; settings: Candida tropicalis
# C. krusei ATCC 6258 [7] = test: Broth microdilution MIC (CLSI), Examples 3 and 4; settings: Pichia kudriavzevii, ATCC6258, 24 h, read-out: Broth MIC
# Description: Antifungal susceptibility testing. Candida strains were cultured aerobically at 35° C. on SDA plates or in RPMI 1640 broth (pH 7.0). […] MIC assays were performed in triplicate.
# C. albicans NRRL Y-477 [8] = assay type: cell-based, Candida albicans
# Description: as §1
# C. albicans NRRL Y-477 [9] = test: microbe, parasite or virus in culture; assay type: cell-based, Candida albicans; settings: for MIC: Candida albicans
# [10] = SDA, minimum concentration to cleanly inhibit growth
smiles,measurement,setting,value
"CCCCCOc1ccc(-c2ccc(-c3ccc(C(=O)N[C@H]4C[C@@H](O)[C@@H](O)NC(=O)[C@@H]5[C@@H](O)[C@@H](C)CN5C(=O)[C@H]([C@@H](C)O)NC(=O)[C@H]([C@H](O)[C@@H](O)c5ccc(O)cc5)NC(=O)[C@@H]5C[C@@H](O)CN5C(=O)[C@H]([C@@H](C)O)NC4=O)cc3)cc2)cc1 [ANID, anidulafungin] ({pTerphenylCO(4''-OnC5H11)}-[Orn(4R-OH,5R-OH)]T[Hyp][hTyr(3S-OH,4S-OH)]T[Pro(3S-OH,4S-Me)]; lactam 1-C)",Median mutation frequency,[1]; ATCC 2001,7.02E−08
same,Freq. (replicate mutation frequency),[1]; ATCC 2001,7.02E−08 and 6.71E−08 and 1.09E−07
same,Median mutation frequency,[1]; ATCC 90030,9.01E−09
same,Freq. (replicate mutation frequency),[1]; ATCC 90030,4.41E−09 and 2.10E−08 and 9.01E−09
same,Plate concentration,[1]; ATCC 2001,0.125 µg/mL
same,Plate concentration,[1]; ATCC 90030,0.125 µg/mL
same,MIC fold-shift,"C. parapsilosis CP02; CP02, WT to P20",1
same,MIC,"C. parapsilosis CP02; CP02, CP02 P20-1, selecting drug ANID",4 µg/mL
same,MIC,"C. parapsilosis CP02; CP02, CP02 P20-1, selecting drug CAS",4 µg/mL
same,MIC,"C. parapsilosis CP02; CP02, CP02 P20-1, selecting drug CMP1",8 µg/mL
same,MIC,"C. parapsilosis CP02; CP02, read-out: MIC P20, CP02, total population after 20 passages with the selecting drug, MIC of selecting drug",4 µg/mL
same,Cumulative % of isolates inhibited at MIC 0.25 μg/mL,Candida orthopsilosis; 10 isolates,(30.0) %
same,Cumulative % of isolates inhibited at MIC 0.5 μg/mL,Candida orthopsilosis; 10 isolates,(50.0) %
same,Cumulative % of isolates inhibited at MIC 1 μg/mL,Candida orthopsilosis; 10 isolates,(90.0) %
same,Cumulative % of isolates inhibited at MIC 2 μg/mL,Candida orthopsilosis; 10 isolates,(100.0) %
same,Number of isolates inhibited at MIC 0.25 μg/mL,Candida orthopsilosis; 10 isolates,3
same,Number of isolates inhibited at MIC 0.5 μg/mL,Candida orthopsilosis; 10 isolates,2
same,Number of isolates inhibited at MIC 1 μg/mL,Candida orthopsilosis; 10 isolates,4
same,Number of isolates inhibited at MIC 2 μg/mL,Candida orthopsilosis; 10 isolates,1
same,MIC50,Candida orthopsilosis; Lodderomyces orthopsilosis,0.5 µg/mL
same,MIC90,Candida orthopsilosis; Lodderomyces orthopsilosis,1 µg/mL
same,MIC90,"[2]; 24 h, pH 4",0.03 µg/mL
same,MIC90,"[2]; 24 h, pH 7",0.008 µg/mL
same,MIC90,"[2]; 48 h, pH 4",0.06 µg/mL
same,MIC,"[2]; 48 h, pH 4, fluconazole-resistant isolate 1, pH 4",0.03 µg/mL
same,MIC,"[2]; 48 h, pH 4, fluconazole-resistant isolate 2, pH 4",0.03 µg/mL
same,MIC,"[2]; 48 h, pH 4, fluconazole-resistant isolate 3, pH 4",0.03 µg/mL
same,MIC,"[2]; 48 h, pH 4, fluconazole-resistant isolate 4, pH 4",0.06 µg/mL
same,MIC,"[2]; 48 h, pH 4, fluconazole-resistant isolate 5, pH 4",0.125 µg/mL
same,MIC,"[2]; 48 h, pH 4, fluconazole-resistant isolate 6, pH 4",0.06 µg/mL
same,MIC,"[2]; 48 h, pH 4, fluconazole-resistant isolate 7, pH 4",0.06 µg/mL
same,MIC,"[2]; 48 h, pH 4, fluconazole-resistant isolate 8, pH 4",0.06 µg/mL
same,MIC,"[2]; 48 h, pH 4, fluconazole-resistant isolate 9, pH 4",0.25 µg/mL
same,MIC,"[2]; 48 h, pH 4, fluconazole-resistant isolate 10, pH 4",0.06 µg/mL
same,MIC90,"[2]; 48 h, pH 7",0.03 µg/mL
same,MIC,"[2]; 48 h, pH 7, fluconazole-resistant isolate 1, pH 7",0.008 µg/mL
same,MIC,"[2]; 48 h, pH 7, fluconazole-resistant isolate 2, pH 7",0.03 µg/mL
same,MIC,"[2]; 48 h, pH 7, fluconazole-resistant isolate 3, pH 7",0.008 µg/mL
same,MIC,"[2]; 48 h, pH 7, fluconazole-resistant isolate 4, pH 7",0.008 µg/mL
same,MIC,"[2]; 48 h, pH 7, fluconazole-resistant isolate 5, pH 7",0.016 µg/mL
same,MIC,"[2]; 48 h, pH 7, fluconazole-resistant isolate 6, pH 7",0.008 µg/mL
same,MIC,"[2]; 48 h, pH 7, fluconazole-resistant isolate 7, pH 7",0.008 µg/mL
same,MIC,"[2]; 48 h, pH 7, fluconazole-resistant isolate 8, pH 7",0.008 µg/mL
same,MIC,"[2]; 48 h, pH 7, fluconazole-resistant isolate 9, pH 7",0.125 µg/mL
same,MIC,"[2]; 48 h, pH 7, fluconazole-resistant isolate 10, pH 7",0.008 µg/mL
same,Cumulative % of isolates inhibited at MIC >8 μg/mL,[3]; 19 isolates,(100.0) %
same,Number of isolates inhibited at MIC >8 μg/mL,[3]; 19 isolates,19
same,MIC50,[3]; Cryptococcus neoformans,8 µg/mL
same,MIC90,[3]; Cryptococcus neoformans,8 µg/mL
same,Cumulative % of isolates inhibited at MEC 0.015 μg/mL,Aspergillus fumigatus,(91.1) %
same,Cumulative % of isolates inhibited at MEC 0.03 μg/mL,Aspergillus fumigatus,(100.0) %
same,Cumulative % of isolates inhibited at MEC ≤0.008 μg/mL,Aspergillus fumigatus,(53.6) %
same,MEC50,Aspergillus fumigatus,0.008 µg/mL
same,Number of isolates inhibited at MEC 0.015 μg/mL,Aspergillus fumigatus,21
same,Number of isolates inhibited at MEC 0.03 μg/mL,Aspergillus fumigatus,5
same,Number of isolates inhibited at MEC ≤0.008 μg/mL,Aspergillus fumigatus,30
same,MIC fold-shift,"C. krusei ATCC 6258 [4]; ATCC 6258, WT to P20",2
same,MIC,C. krusei ATCC 6258 [4]; ATCC6258,0.125 µg/mL
same,MIC,"C. krusei ATCC 6258 [4]; ATCC6258, read-out: MIC P20",0.125 µg/mL
same,Cumulative % of isolates inhibited at MIC 0.015 μg/mL,Candida albicans; 251 isolates,(67.7) %
same,Cumulative % of isolates inhibited at MIC 0.03 μg/mL,Candida albicans; 251 isolates,(89.2) %
same,Cumulative % of isolates inhibited at MIC 0.06 μg/mL,Candida albicans; 251 isolates,(98.0) %
same,Cumulative % of isolates inhibited at MIC 0.12 μg/mL,Candida albicans; 251 isolates,(100.0) %
same,Cumulative % of isolates inhibited at MIC ≤0.008 μg/mL,Candida albicans; 251 isolates,(27.5) %
same,Number of isolates inhibited at MIC 0.015 μg/mL,Candida albicans; 251 isolates,101
same,Number of isolates inhibited at MIC 0.03 μg/mL,Candida albicans; 251 isolates,54
same,Number of isolates inhibited at MIC 0.06 μg/mL,Candida albicans; 251 isolates,22
same,Number of isolates inhibited at MIC 0.12 μg/mL,Candida albicans; 251 isolates,5
same,Number of isolates inhibited at MIC ≤0.008 μg/mL,Candida albicans; 251 isolates,69
same,MIC50,Candida albicans; Candida albicans,0.015 µg/mL
same,MIC90,Candida albicans; Candida albicans,0.06 µg/mL
same,Median mutation frequency,C. krusei ATCC 6258 [5],<3.38E−09
same,Plate concentration,C. krusei ATCC 6258 [5]; [10],0.25 µg/mL
same,Freq. (replicate mutation frequency),C. krusei ATCC 6258 [5]; replicate plates 1-3,<3.38E−09 (2×) and <3.51E−09
same,Cumulative % of isolates inhibited at MIC 0.015 μg/mL,Candida dubliniensis; 11 isolates,(9.1) %
same,Cumulative % of isolates inhibited at MIC 0.03 μg/mL,Candida dubliniensis; 11 isolates,(36.4) %
same,Cumulative % of isolates inhibited at MIC 0.06 μg/mL,Candida dubliniensis; 11 isolates,(100.0) %
same,Number of isolates inhibited at MIC 0.015 μg/mL,Candida dubliniensis; 11 isolates,1
same,Number of isolates inhibited at MIC 0.03 μg/mL,Candida dubliniensis; 11 isolates,3
same,Number of isolates inhibited at MIC 0.06 μg/mL,Candida dubliniensis; 11 isolates,7
same,MIC50,Candida dubliniensis; Candida dubliniensis,0.06 µg/mL
same,MIC90,Candida dubliniensis; Candida dubliniensis,0.06 µg/mL
same,Cumulative % of isolates inhibited at MIC 0.015 μg/mL,Candida krusei; 16 isolates,6.2%
same,Cumulative % of isolates inhibited at MIC 0.03 μg/mL,Candida krusei; 16 isolates,(43.8) %
same,Cumulative % of isolates inhibited at MIC 0.06 μg/mL,Candida krusei; 16 isolates,(100.0) %
same,Number of isolates inhibited at MIC 0.015 μg/mL,Candida krusei; 16 isolates,1
same,Number of isolates inhibited at MIC 0.03 μg/mL,Candida krusei; 16 isolates,6
same,Number of isolates inhibited at MIC 0.06 μg/mL,Candida krusei; 16 isolates,9
same,MIC50,Candida krusei; Pichia kudriavzevii,0.06 µg/mL
same,MIC90,Candida krusei; Pichia kudriavzevii,0.06 µg/mL
same,MIC90,"[6]; 24 h, pH 4",0.125 µg/mL
same,MIC90,"[6]; 24 h, pH 7",0.03 µg/mL
same,MIC90,"[6]; 48 h, pH 4",0.5 µg/mL
same,MIC90,"[6]; 48 h, pH 7",0.06 µg/mL
same,MIC,C. krusei ATCC 6258 [7],0.06 µg/mL
same,Median mutation frequency,C. albicans NRRL Y-477 [8],1.59E−07
same,Plate concentration,C. albicans NRRL Y-477 [8]; [10],0.015 µg/mL
same,Freq. (replicate mutation frequency),C. albicans NRRL Y-477 [8]; replicate plates 1-3,1.88E−07 and 1.59E−07 and 1.56E−07
same,MIC,"C. albicans NRRL Y-477 [9]; NRRLY477, 48 h, NRRL Y-477 P20-1, selecting drug ANID, Fks1 HS1 S645Y, 48 h read",4 µg/mL
same,MIC,"C. albicans NRRL Y-477 [9]; NRRLY477, 48 h, NRRL Y-477 P20-1, selecting drug CMP1, 48 h read",0.125 µg/mL
same,MIC,"C. albicans NRRL Y-477 [9]; NRRLY477, NRRL Y-477 P20-1, selecting drug CAS",0.015 µg/mL
same,MIC,"C. albicans NRRL Y-477 [9]; NRRLY477, read-out: MIC P20, NRRL Y-477, total population after 20 passages with the selecting drug, MIC of selecting drug",4 µg/mL
same,MIC fold-shift,"C. albicans NRRL Y-477 [9]; NRRL Y-477, WT to P20",256
